From patent US9757426B2, “Peptide additives for enhancing acceptance and ingestion of edibles by rodents and uses thereof” (priority 2013, dated 2017)
No end group written: not given here.

Experiments:
Type in all cases: in vivo
mice [1] = test: Concentration/response functions, preference for warfarin-containing food; details: both foods contain 0.025% warfarin, +/- SEM
Excerpt: Concentration/response functions were studies for uroguanylin. […] A preference ratio of 0.5 indicates no preference.
Concentration/response functions were also studied for guanylin. […] A preference ratio of 0.5 indicates no preference.

C57BL/6J mice = test: Preference testing after uroguanylin exposure (B6 mice); details: mean ± s.e.m.
Excerpt: Food preference testing—Food preference assays were modified from those used previously for testing the social transmission of food preference in rats and mice (Galef et al. 1983; Posadas-Andrews and Roper 1983; Valsecchi and Galef 1989; Crawley 2007; Ryan et al. 2008; Munger et al. 2010). In all experiments, subject mice were pair-housed for four days in standard cages with the food container placed on the cage floor. Mice were fed a crushed rodent diet (2018SX, Harlan) to habituate them to powdered food. The amount of food was restricted to 2 g/mouse/day to facilitate feeding during the food preference tests. […] All data were expressed as mean ±S.E.M. Differences were accepted as significant if p<0.05 (see below for statistical tests).
B6 mice were randomly assigned into one of three groups (n=8 each). On the test day, each mouse was moved to individual cages and presented with a petri dish containing a drop of saline (150 μl) with added flavor powder (2% cocoa or 1% cinnamon) with or without uroguanylin (0, 50 nM or 50 μM). After 1 hr exposure, mice were moved to clean cages. After 3 hrs, mice were presented with two food trays (3.5 cm petri dishes mounted to a weighted plastic stage), one of which contained cocoa-odored food (3.5 g) and the other cinnamon-odored food (3.5 g). Subject mice were allowed to feed for 1 hr, at which point the food trays were removed and weighed to calculate the amount of each food consumed. […] Significance between stimulus conditions was determined by one-way ANOVA.
The chemostimulus CS2, when paired with a food odor, is sufficient to increase the attractiveness of foods and to promote the acquisition of food preferences in mice (Bean et al. 1988; Munger et al. 2010). Whether uroguanylin could serve a similar role was tested. Individual observer mice were allowed to interact with a petri dish containing an odor (2% cocoa or 1% cinnamon) with or without uroguanylin (50 nM or 50 μM) in saline. Each mouse was subsequently presented with a choice of two odored chows (cocoa vs. cinnamon).

mice [2] = test: Maintenance over time of uroguanylin-dependent preferences (warfarin-containing foods, retests); details: 50 nM uroguanylin
Method: Mice form preferences to food and feeding sites when food odors are paired with the social cues uroguanylin. It was determined whether mice will maintain this preference and return to the learned food odor even after the food has been tainted with the commonly used rodenticide warfarin. […] A preference ratio of 0.5 indicates no preference. […] These same mice were retested one and four days after the initial day of testing. […] By contrast, there was no effect of the test day on the preference ratio.

[3] = 1 nM peptide + food odor in saline for 1 hr
[4] = 50 nM peptide + food odor in saline for 1 hr

| Substance | Preference ratio (PR = food with demonstrated odor (g) consumed/total food (g) consumed) (mice [1]; [3]) | Preference ratio (PR = food with demonstrated odor (g) consumed/total food (g) consumed) (mice [1]; [4]) | Amount of food consumed, Total food (C57BL/6J mice; Odor + UG (50 nM)) | Amount of food consumed, w/demonstrated odor (C57BL/6J mice; Odor + UG (50 nM)) | Amount of food consumed, w/novel odor (C57BL/6J mice; Odor + UG (50 nM)) | Amount of food consumed, Total food (C57BL/6J mice; Odor + UG (50 μM)) | Amount of food consumed, w/demonstrated odor (C57BL/6J mice; Odor + UG (50 μM)) | Amount of food consumed, w/novel odor (C57BL/6J mice; Odor + UG (50 μM)) | Preference ratio (PR) (mice [2]; initial day of testing, both foods contain 0.025% warfarin) | Preference ratio (PR) (mice [2]; retest Day 2, foods contain 0.025% warfarin) | Preference ratio (PR) (mice [2]; retest Day 5, foods contain 0.025% warfarin) |
| --- | --- | --- | --- | --- | --- | --- | --- | --- | --- | --- | --- |
| guanylin (PGTCEICAYAACTGC; ends and bridges not checked; cysteine pairing not given here; UniProt Q02747 101-115, looked up) [guanylin family peptide, naturally-occurring peptide hormone produced in the intestines] | 0.75 +/−0.04 | 0.72 +/−0.04 |  |  |  |  |  |  |  |  |  |
| uroguanylin (NDDCELCVNVACTGCL; ends and bridges not checked; cysteine pairing not given here; UniProt Q16661 97-112, looked up) [guanylin family peptide, naturally-occurring peptide hormone produced in the intestines; GC-D agonist] | 0.65 +/−0.05 | 0.76 +/−0.04 | 1.42 ± 0.19 g | 1.08 ± 0.14 g | 0.34 ± 0.08 g | 1.50 ± 0.26 g | 1.15 ± 0.14 g | 0.35 ± 0.12 g | 0.76+/−0.04 | 0.72 +/−0.06 | 0.74 +/−0.08 |
